# Assay results: patent US10906910B2, “Substituted bicyclic pyrimidine compounds with tubulin and multiple receptor inhibition” (Duquesne University of the Holy Spirit, priority 2014, dated 2021)
# How the values were obtained:
# Format in all cases: cell-based
# LOX IMVI = experiment: NCI 60 panel, Melanoma LOX IMVI; conditions: Homo sapiens, read-out: Tumor cell inhibitory activity (NCI) GI50
# RPMI-8226 = experiment: NCI 60 panel, Leukemia RPMI-8226; conditions: Homo sapiens, read-out: Tumor cell inhibitory activity (NCI) GI50
# M14 = experiment: NCI 60 panel, Melanoma M14; conditions: Homo sapiens, read-out: Tumor cell inhibitory activity (NCI) GI50
# EKVX = experiment: NCI 60 panel, NSCLC EKVX; conditions: Homo sapiens, read-out: Tumor cell inhibitory activity (NCI) GI50
# SNB-19 = experiment: NCI 60 panel, CNS Cancer SNB-19; conditions: Homo sapiens, read-out: Tumor cell inhibitory activity (NCI) GI50
# UACC-62 = experiment: NCI 60 panel, Melanoma UACC-62; conditions: Homo sapiens, read-out: Tumor cell inhibitory activity (NCI) GI50
# TK10 = experiment: NCI 60 panel, Renal Cancer TK10; conditions: Homo sapiens, TK-10, read-out: Tumor cell inhibitory activity (NCI) GI50
# ACHN = experiment: NCI 60 panel, Renal Cancer ACHN; conditions: Homo sapiens, read-out: Tumor cell inhibitory activity (NCI) GI50
# OVCAR-8 = experiment: NCI 60 panel, Ovarian cancer OVCAR-8; conditions: Homo sapiens, read-out: Tumor cell inhibitory activity (NCI) GI50
# NCI/ADR-RES = experiment: NCI 60 panel, Ovarian cancer NCI/ADR-RES; conditions: Homo sapiens, read-out: Tumor cell inhibitory activity (NCI) GI50
# OVCAR-4 = experiment: NCI 60 panel, Ovarian cancer OVCAR-4; conditions: Homo sapiens, read-out: Tumor cell inhibitory activity (NCI) GI50
# SNB-75 = experiment: NCI 60 panel, CNS Cancer SNB-75; conditions: Homo sapiens, read-out: Tumor cell inhibitory activity (NCI) GI50
# NCI-H460 = experiment: NCI 60 panel, NSCLC NCI-H460; conditions: Homo sapiens, read-out: Tumor cell inhibitory activity (NCI) GI50
# RXF 393 = experiment: NCI 60 panel, Renal Cancer RXF 393; conditions: Homo sapiens, read-out: Tumor cell inhibitory activity (NCI) GI50
# MDA-MB-231/ATCC = experiment: NCI 60 panel, Breast Cancer MDA-MB-231/ATCC; conditions: Homo sapiens, read-out: Tumor cell inhibitory activity (NCI) GI50
# wild type HeLa cells = experiment: HeLa cytotoxicity, wild type; conditions: Homo sapiens
# [1] = system: NCI 60 tumor cell line panel; experiment: NCI 60 tumor cell line panel, overall
# SW-620 = experiment: NCI 60 panel, Colon Cancer SW-620; conditions: Homo sapiens, read-out: Tumor cell inhibitory activity (NCI) GI50
# UACC-257 = experiment: NCI 60 panel, Melanoma UACC-257; conditions: Homo sapiens, read-out: Tumor cell inhibitory activity (NCI) GI50
# NCI-H226 = experiment: NCI 60 panel, NSCLC NCI-H226; conditions: Homo sapiens, read-out: Tumor cell inhibitory activity (NCI) GI50
# COLO 205 = experiment: NCI 60 panel, Colon Cancer COLO 205; conditions: Homo sapiens, read-out: Tumor cell inhibitory activity (NCI) GI50
# OVCAR-3 = experiment: NCI 60 panel, Ovarian cancer OVCAR-3; conditions: Homo sapiens, read-out: Tumor cell inhibitory activity (NCI) GI50
# MCF7 = experiment: NCI 60 panel, Breast Cancer MCF7; conditions: Homo sapiens, read-out: Tumor cell inhibitory activity (NCI) GI50
# PDGFRβ = PDGFRβ (Homo sapiens, UniProt P09619); experiment: PDGFRβ kinase inhibition, whole-cell assay; conditions: whole-cell assay; read-out: kinase inhibition IC50 [whole-cell assays] PDGFRβ
# BT-549 = experiment: NCI 60 panel, Breast Cancer BT-549; conditions: Homo sapiens, read-out: Tumor cell inhibitory activity (NCI) GI50
# DU-145 = experiment: NCI 60 panel, Prostate Cancer DU-145; conditions: Homo sapiens, read-out: Tumor cell inhibitory activity (NCI) GI50
# OVCAR-5 = experiment: NCI 60 panel, Ovarian cancer OVCAR-5; conditions: Homo sapiens, read-out: Tumor cell inhibitory activity (NCI) GI50
# U251 = experiment: NCI 60 panel, CNS Cancer U251; conditions: Homo sapiens, U-251, read-out: Tumor cell inhibitory activity (NCI) GI50
# NCI-H23 = experiment: NCI 60 panel, NSCLC NCI-H23; conditions: Homo sapiens, read-out: Tumor cell inhibitory activity (NCI) GI50
# IGROVI = experiment: NCI 60 panel, Ovarian cancer IGROVI; conditions: read-out: Tumor cell inhibitory activity (NCI) GI50
# HL-60(TB) = experiment: NCI 60 panel, Leukemia HL-60(TB); conditions: Homo sapiens, read-out: Tumor cell inhibitory activity (NCI) GI50
# UO-31 = experiment: NCI 60 panel, Renal Cancer UO-31; conditions: Homo sapiens, read-out: Tumor cell inhibitory activity (NCI) GI50
# CAKI-1 = experiment: NCI 60 panel, Renal Cancer CAKI-1; conditions: Homo sapiens, read-out: Tumor cell inhibitory activity (NCI) GI50
# SR = experiment: NCI 60 panel, Leukemia SR; conditions: Homo sapiens, read-out: Tumor cell inhibitory activity (NCI) GI50
# NCI-H322M = experiment: NCI 60 panel, NSCLC NCI-H322M; conditions: Homo sapiens, read-out: Tumor cell inhibitory activity (NCI) GI50
# SF-539 = experiment: NCI 60 panel, CNS Cancer SF-539; conditions: Homo sapiens, read-out: Tumor cell inhibitory activity (NCI) GI50
# HCT-116 = experiment: NCI 60 panel, Colon Cancer HCT-116; conditions: Homo sapiens, read-out: Tumor cell inhibitory activity (NCI) GI50
# MDA-MB-435 = experiment: NCI 60 panel, Melanoma MDA-MB-435; conditions: Homo sapiens, read-out: Tumor cell inhibitory activity (NCI) GI50
# A549/ATCC = experiment: NCI 60 panel, NSCLC A549/ATCC; conditions: Homo sapiens, read-out: Tumor cell inhibitory activity (NCI) GI50
# K-562 = experiment: NCI 60 panel, Leukemia K-562; conditions: Homo sapiens, K562, read-out: Tumor cell inhibitory activity (NCI) GI50
# MDA-MB-468 = experiment: NCI 60 panel, Breast Cancer MDA-MB-468; conditions: Homo sapiens, read-out: Tumor cell inhibitory activity (NCI) GI50
# 786-0 = experiment: NCI 60 panel, Renal Cancer 786-0; conditions: Homo sapiens, read-out: Tumor cell inhibitory activity (NCI) GI50
# SK-OV-3 = experiment: NCI 60 panel, Ovarian cancer SK-OV-3; conditions: Homo sapiens, read-out: Tumor cell inhibitory activity (NCI) GI50
# MOLT-4 = experiment: NCI 60 panel, Leukemia MOLT-4; conditions: Homo sapiens, read-out: Tumor cell inhibitory activity (NCI) GI50
# HOP-62 = experiment: NCI 60 panel, NSCLC HOP-62; conditions: Homo sapiens, read-out: Tumor cell inhibitory activity (NCI) GI50
# HCT-15 = experiment: NCI 60 panel, Colon Cancer HCT-15; conditions: Homo sapiens, read-out: Tumor cell inhibitory activity (NCI) GI50
# HS 578T = experiment: NCI 60 panel, Breast Cancer HS 578T; conditions: Homo sapiens, read-out: Tumor cell inhibitory activity (NCI) GI50
# T-47D = experiment: NCI 60 panel, Breast Cancer T-47D; conditions: Homo sapiens, T47D, read-out: Tumor cell inhibitory activity (NCI) GI50
# NCI-H522 = experiment: NCI 60 panel, NSCLC NCI-H522; conditions: Homo sapiens, read-out: Tumor cell inhibitory activity (NCI) GI50
# HOP-92 = experiment: NCI 60 panel, NSCLC HOP-92; conditions: Homo sapiens, read-out: Tumor cell inhibitory activity (NCI) GI50
# CCRF-CEM = experiment: NCI 60 panel, Leukemia CCRF-CEM; conditions: Homo sapiens, read-out: Tumor cell inhibitory activity (NCI) GI50
# A498 = experiment: NCI 60 panel, Renal Cancer A498; conditions: Homo sapiens, read-out: Tumor cell inhibitory activity (NCI) GI50
# SK-MEL-28 = experiment: NCI 60 panel, Melanoma SK-MEL-28; conditions: Homo sapiens, read-out: Tumor cell inhibitory activity (NCI) GI50
# HCC-2998 = experiment: NCI 60 panel, Colon Cancer HCC-2998; conditions: Homo sapiens, read-out: Tumor cell inhibitory activity (NCI) GI50
# KM12 = experiment: NCI 60 panel, Colon Cancer KM12; conditions: Homo sapiens, read-out: Tumor cell inhibitory activity (NCI) GI50
# MALME-3M = experiment: NCI 60 panel, Melanoma MALME-3M; conditions: Homo sapiens, read-out: Tumor cell inhibitory activity (NCI) GI50
# SF-268 = experiment: NCI 60 panel, CNS Cancer SF-268; conditions: Homo sapiens, read-out: Tumor cell inhibitory activity (NCI) GI50
# SN12C = experiment: NCI 60 panel, Renal Cancer SN12C; conditions: Homo sapiens, read-out: Tumor cell inhibitory activity (NCI) GI50
# SF-295 = experiment: NCI 60 panel, CNS Cancer SF-295; conditions: Homo sapiens, read-out: Tumor cell inhibitory activity (NCI) GI50
# SK-MEL-5 = experiment: NCI 60 panel, Melanoma SK-MEL-5; conditions: Homo sapiens, read-out: Tumor cell inhibitory activity (NCI) GI50
# EGFR = EGFR (Homo sapiens, UniProt P00533); experiment: EGFR kinase inhibition, whole-cell assay; conditions: read-out: kinase inhibition IC50 [whole-cell assays] EGFR
# [2] = system: βIII-tubulin overexpressing HeLa cell line; experiment: HeLa cytotoxicity, βIII-tubulin overexpressing
# Chain of EGFR (P00533 25-1210, species assumed): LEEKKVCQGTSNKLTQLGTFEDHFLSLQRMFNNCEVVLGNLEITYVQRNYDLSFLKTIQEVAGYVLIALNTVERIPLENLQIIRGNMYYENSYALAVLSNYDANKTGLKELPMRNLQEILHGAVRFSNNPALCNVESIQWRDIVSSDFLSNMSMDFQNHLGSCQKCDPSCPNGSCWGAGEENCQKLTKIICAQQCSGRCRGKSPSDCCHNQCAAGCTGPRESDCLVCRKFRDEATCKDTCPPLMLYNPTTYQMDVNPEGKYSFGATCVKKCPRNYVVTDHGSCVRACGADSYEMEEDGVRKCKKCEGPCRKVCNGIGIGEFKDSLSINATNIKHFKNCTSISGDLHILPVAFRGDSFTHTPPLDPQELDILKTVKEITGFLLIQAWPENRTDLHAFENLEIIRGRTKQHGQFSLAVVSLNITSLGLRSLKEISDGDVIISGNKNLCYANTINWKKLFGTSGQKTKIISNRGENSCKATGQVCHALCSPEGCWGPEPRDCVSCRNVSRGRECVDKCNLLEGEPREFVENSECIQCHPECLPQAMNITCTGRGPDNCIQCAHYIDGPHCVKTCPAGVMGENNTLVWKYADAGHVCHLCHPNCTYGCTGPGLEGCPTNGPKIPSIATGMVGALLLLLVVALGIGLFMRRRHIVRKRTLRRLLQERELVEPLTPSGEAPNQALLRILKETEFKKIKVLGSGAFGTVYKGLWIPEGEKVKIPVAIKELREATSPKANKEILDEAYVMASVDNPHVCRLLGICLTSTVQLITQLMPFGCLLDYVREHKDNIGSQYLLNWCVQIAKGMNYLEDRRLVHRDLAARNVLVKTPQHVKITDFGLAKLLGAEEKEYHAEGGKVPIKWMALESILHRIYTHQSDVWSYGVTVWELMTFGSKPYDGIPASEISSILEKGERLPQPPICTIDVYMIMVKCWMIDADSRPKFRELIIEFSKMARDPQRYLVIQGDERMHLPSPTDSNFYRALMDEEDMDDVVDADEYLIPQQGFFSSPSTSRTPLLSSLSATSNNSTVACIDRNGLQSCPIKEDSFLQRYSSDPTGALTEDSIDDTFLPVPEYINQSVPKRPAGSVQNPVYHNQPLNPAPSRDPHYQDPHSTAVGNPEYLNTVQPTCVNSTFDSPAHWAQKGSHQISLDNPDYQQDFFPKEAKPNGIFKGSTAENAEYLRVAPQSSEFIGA
# Chain of PDGFRβ (P09619 33-1106, species assumed): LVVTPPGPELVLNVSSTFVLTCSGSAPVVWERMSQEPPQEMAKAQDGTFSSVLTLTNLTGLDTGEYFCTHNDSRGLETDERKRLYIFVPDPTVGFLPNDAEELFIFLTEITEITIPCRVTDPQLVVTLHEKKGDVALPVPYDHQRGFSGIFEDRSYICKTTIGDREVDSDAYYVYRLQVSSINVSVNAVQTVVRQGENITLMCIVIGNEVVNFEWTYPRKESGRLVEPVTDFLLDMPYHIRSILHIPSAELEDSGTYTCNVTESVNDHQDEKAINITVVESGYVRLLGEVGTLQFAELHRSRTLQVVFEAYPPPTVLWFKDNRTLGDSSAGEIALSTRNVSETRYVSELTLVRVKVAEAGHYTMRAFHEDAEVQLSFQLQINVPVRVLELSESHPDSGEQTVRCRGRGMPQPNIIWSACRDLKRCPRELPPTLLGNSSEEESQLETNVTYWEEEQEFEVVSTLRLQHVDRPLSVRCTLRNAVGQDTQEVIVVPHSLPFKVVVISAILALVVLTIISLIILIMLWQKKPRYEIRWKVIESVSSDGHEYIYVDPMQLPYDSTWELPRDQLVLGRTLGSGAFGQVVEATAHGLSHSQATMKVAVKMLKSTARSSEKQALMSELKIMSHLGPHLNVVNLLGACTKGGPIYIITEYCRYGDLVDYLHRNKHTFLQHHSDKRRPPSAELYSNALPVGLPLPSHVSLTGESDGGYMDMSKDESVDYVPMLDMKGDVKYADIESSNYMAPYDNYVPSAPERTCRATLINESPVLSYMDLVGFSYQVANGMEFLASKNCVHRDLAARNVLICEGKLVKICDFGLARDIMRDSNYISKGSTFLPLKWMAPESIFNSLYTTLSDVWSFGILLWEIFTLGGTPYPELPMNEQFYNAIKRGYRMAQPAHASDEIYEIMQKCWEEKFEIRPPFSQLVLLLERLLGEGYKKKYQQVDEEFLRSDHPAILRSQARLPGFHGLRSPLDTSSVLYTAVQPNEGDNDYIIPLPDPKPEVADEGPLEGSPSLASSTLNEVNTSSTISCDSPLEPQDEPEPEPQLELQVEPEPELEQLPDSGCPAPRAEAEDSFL
smiles,measurement,setting,value
"COc1ccc2c(c1)CCCN2c1nc(C)nc2c(Cc3ccccc3)c[nH]c12 [Compound 2, 1-(7-Benzyl-2-methyl-5H-pyrrolo[3,2-d]pyrimidin-4-yl)-6-methoxy-1,2,3,4-tetrahydroquinoline]",GI50,LOX IMVI,521 nM
same,GI50,RPMI-8226,266 nM
same,GI50,M14,252 nM
same,GI50,EKVX,463 nM
same,GI50,SNB-19,549 nM
same,GI50,UACC-62,659 nM
same,GI50,TK10,123 nM
same,GI50,ACHN,830 nM
same,GI50,OVCAR-8,487 nM
same,GI50,NCI/ADR-RES,265 nM
same,GI50,OVCAR-4,468 nM
same,GI50,SNB-75,182 nM
same,GI50,NCI-H460,337 nM
same,GI50,RXF 393,212 nM
same,GI50,MDA-MB-231/ATCC,641 nM
same,IC50,wild type HeLa cells,250 nM
same,"GI50 across the NCI 60 tumor cell line panel, in words",[1],2- to 3-digit nanomolar
same,GI50,SW-620,370 nM
same,GI50,UACC-257,108 nM
same,GI50,NCI-H226,136 nM
same,GI50,COLO 205,232 nM
same,GI50,OVCAR-3,285 nM
same,GI50,MCF7,248 nM
same,IC50,PDGFRβ,90.3 nM
same,GI50,BT-549,755 nM
same,GI50,DU-145,383 nM
same,GI50,OVCAR-5,543 nM
same,GI50,U251,316 nM
same,GI50,NCI-H23,320 nM
same,GI50,IGROVI,440 nM
same,GI50,HL-60(TB),222 nM
same,GI50,UO-31,390 nM
same,GI50,CAKI-1,341 nM
same,GI50,SR,922 nM
same,GI50,NCI-H322M,362 nM
same,GI50,SF-539,260 nM
same,GI50,HCT-116,368 nM
same,GI50,MDA-MB-435,341 nM
same,GI50,A549/ATCC,406 nM
same,GI50,K-562,111 nM
same,GI50,MDA-MB-468,153 nM
same,GI50,786-0,934 nM
same,GI50,SK-OV-3,423 nM
same,GI50,MOLT-4,345 nM
same,GI50,HOP-62,379 nM
same,GI50,HCT-15,366 nM
same,GI50,HS 578T,582 nM
same,GI50,T-47D,128 nM
same,GI50,NCI-H522,316 nM
same,GI50,HOP-92,189 nM
same,GI50,CCRF-CEM,226 nM
same,GI50,A498,197 nM
same,GI50,SK-MEL-28,368 nM
same,GI50,HCC-2998,318 nM
same,GI50,KM12,366 nM
same,GI50,MALME-3M,330 nM
same,GI50,SF-268,723 nM
same,GI50,SN12C,618 nM
same,GI50,SF-295,192 nM
same,GI50,SK-MEL-5,325 nM
same,IC50,EGFR,33.6 nM
CC(=O)O[C@@]12CO[C@@H]1C[C@H](O)[C@@]1(C)C(=O)[C@H](O)C3=C(C)[C@@H](OC(=O)[C@H](O)[C@@H](NC(=O)OC(C)(C)C)c4ccccc4)C[C@@](O)([C@@H](OC(=O)c4ccccc4)[C@H]21)C3(C)C [docetaxel],IC50,wild type HeLa cells,4 ± 2 nM
same,fold less potent in βIII-tubulin overexpressing cell line than in wild type HeLa cells,[2],3 fold
same,IC50,"[2]; Homo sapiens, βIII-tubulin overexpressing HeLa",13 ± 4 nM
